Laboratory results from patent publication US12590062B2, “PD-1/PD-L1 inhibitors” (Gilead Sciences, Inc., priority 2017, dated 2026).

Assays:
[1] = molecular target: PD-1/PD-L1 (Homo sapiens, UniProt Q9NZQ7); experiment: PD-1/PD-L1 biochemical protein-protein interaction assay (ALPHA); type: binding; details: 0.3 nM His tagged PD-L1, 2.5 nM biotinylated Fc-PD-1, 60 minutes at 25° C., read-out: IC50 PD-L1-PD-1 Alpha IC50-mono PD-L1-fcP-D1
In short: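 His-PD-L1 ECD 0.3 nM + biotin-Fc-PD-1 2.5 nM (final), 25 mM Hepes pH 7.4, 150 mM NaCl, 3.4 mM EDTA; 60 min, 25° C; anti-His acceptor/streptavidin donor ALPHA beads; decreased signal = blocked binding; 4-parameter IC50.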

[2] = molecular target: T1, PD-1/PD-L1 interaction (Homo sapiens, UniProt Q9NZQ7); experiment: PD-1/PD-L1 NFAT reporter co-culture assay; type: cell-based; details: Jurkat PD-1 NFAT-luciferase cells co-cultured with aAPC-PD-L1 CHO cells, 6 hrs at 37° C.; read-out: EC50 NFAT Luciferase
T1 construct: expressed in transfected cells; host or cells: CHO cells (aAPC-PD-L1) co-cultured with Jurkat cells overexpressing PD-1 and an NFAT-luciferase reporter
T1 sequence (Q9NZQ7 19-290): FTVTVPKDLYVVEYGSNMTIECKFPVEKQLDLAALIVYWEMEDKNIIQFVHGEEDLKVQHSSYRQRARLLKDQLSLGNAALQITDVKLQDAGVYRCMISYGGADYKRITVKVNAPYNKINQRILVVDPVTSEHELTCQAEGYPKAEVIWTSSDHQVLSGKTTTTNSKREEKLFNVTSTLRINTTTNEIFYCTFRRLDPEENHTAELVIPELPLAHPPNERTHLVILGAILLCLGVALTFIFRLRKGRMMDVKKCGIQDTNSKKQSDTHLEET
In short: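 First, CHO cells displaying anti-CD3 antibody and PD-L1 were plated overnight. Next, compound-treated PD-1 Jurkat NFAT-luciferase reporter cells in 2% FBS RPMI were added for 6 h at 37 °C. Finally, ONE-Glo luminescence was read and EC50 values fitted with a four-parameter equation.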

[3] = molecular target: T2, PD-L1 (Homo sapiens, UniProt Q9NZQ7); experiment: PD-L1/PD-L1 dimerization biochemical protein-protein interaction assay (ALPHA); type: binding; details: compound-induced PD-L1 dimerization, head prints '1 nM' (0.5 nM His-tagged PD-L1 and 0.5 nM FLAG-tagged PD-L1), read-out: AC50 PDL1 Dimer Alpha 1 nM
T2 construct: determine if they can specifically dimerize the extracellular domains of PD-L1
T2 sequence (Q9NZQ7 19-238 limits assumed): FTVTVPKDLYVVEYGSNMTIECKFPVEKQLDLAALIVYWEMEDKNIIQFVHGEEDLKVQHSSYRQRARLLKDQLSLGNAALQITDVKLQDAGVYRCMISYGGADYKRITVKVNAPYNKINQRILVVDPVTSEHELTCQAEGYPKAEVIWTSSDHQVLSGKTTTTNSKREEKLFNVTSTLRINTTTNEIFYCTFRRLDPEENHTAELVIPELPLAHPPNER
T2 sequence (Q9NZQ7 19-238 limits assumed): as above
In short: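 After 2 h at 25 °C with compound, His- and FLAG-tagged PD-L1 ECDs (each 0.5 nM final; 25 mM Hepes pH 7.4, 150 mM NaCl) were detected by sequential anti-His acceptor and anti-FLAG donor bead incubations. Dose-response curves fitted to four-parameter equation for AC50.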

Chain of PD-1/PD-L1 (Q9NZQ7 19-238 limits assumed): as above

| Compound | IC50 [1] | EC50 [2] | AC50 [3] |
| --- | --- | --- | --- |
| CCOC(=O)[C@@H]1CCN(Cc2cc(Cl)c(O[C@H]3CCc4c(-c5cccc(-c6ccc(CN7CC8(C7)CN(C(C)=O)C8)cc6)c5Cl)cccc43)nc2OC)C1 [Example 770] | 0.418 nM | 856 nM | 700 nM |
| COc1nc(O[C@H]2CCc3c(-c4cccc(-c5ccc(CN6CC7(C6)CN(C(C)=O)C7)cc5)c4Cl)cccc32)c(Cl)cc1CN1CC[C@@H](C(=O)O)C1 [Example 771] | 0.064 nM | 130 nM | 45 nM |
| COc1nc(O[C@H]2CCc3c(-c4cccc(-c5ccc(CNCCO)cc5)c4Cl)cccc32)c(Cl)cc1CNCCO [Example 772] | 0.552 nM | ≥ 50000 nM | 19.5 nM |
| COc1nc(O[C@H]2CCc3c(-c4cccc(-c5ccc(CN6CC7(CCC(=O)N7)C6)cc5)c4Cl)cccc32)c(Cl)cc1CN1CC2(CCC(=O)N2)C1 [Example 773] | 0.638 nM | 2100 nM | ≥ 10000 nM |
| COc1nc(O[C@H]2CCc3c(-c4cccc(-c5ccc(C6=N[C@@H](C)CN6)c(OC)n5)c4Cl)cccc32)c(Br)cc1CN1CC[C@H](O)[C@H](F)C1 [Example 774] | 1.31 nM | 463 nM | 2730 nM |
| COc1nc(O[C@H]2CCc3c(-c4cccc(-c5ccc(C6=NCCN6)c(OC)n5)c4Cl)cccc32)c(Br)cc1CN1CC2(C1)CN(C(C)=O)C2 [Example 775] | 0.276 nM | 84 nM | 68 nM |
| CCOC(=O)[C@@H]1CCCCN1Cc1cc(Br)c(O[C@H]2CCc3c(-c4cccc(-c5ccc(C6=NCCN6)c(OC)n5)c4Cl)cccc32)nc1OC [Example 776] | 8.31 nM | 1440 nM | ≥ 10000 nM |
| COc1cc(-c2cccc(-c3cccc4c3CC[C@@H]4Oc3ccc(CN[C@@](C)(CO)C(=O)O)c(OC)n3)c2Cl)ccc1C1=NCCN1 [Example 777] | 0.064 nM | 179 nM | 45.8 nM |
| COc1nc(O[C@H]2CCc3c(-c4cccc(-c5ccc(C6=N[C@H](C)CN6)c(OC)n5)c4Cl)cccc32)ccc1CN[C@@](C)(CO)C(=O)O [Example 778] | 0.113 nM | 212 nM | 259 nM |
| COc1nc(O[C@H]2CCc3c(-c4cccc(-c5ccc(C6=NCCN6)c(OC)n5)c4Cl)cccc32)c(Br)cc1CNC[C@@H]1CCC(=O)N1 [Example 779] | 0.353 nM | 68 nM | 113 nM |
| COc1cc(-c2cccc(-c3cccc4c3CC[C@@H]4Oc3nc(OC)c(CN[C@@](C)(CO)C(=O)O)cc3Br)c2Cl)ccc1C1=NCCN1 [Example 780] | 0.064 nM | 50 nM | 14.4 nM |
| COc1nc(O[C@H]2CCc3c(-c4cccc(-c5ccc(C6=N[C@@H](C)CN6)c(OC)n5)c4Cl)cccc32)c(Br)cc1CN[C@@](C)(CO)C(=O)O [Example 781] | 0.064 nM | 34 nM | 23.3 nM |

More lines, in order of falling IC50 [1], values ahead:

| IC50 [1] | EC50 [2] | AC50 [3] | Compound |
| --- | --- | --- | --- |
| 0.064 nM | 23 nM | 31.9 nM | COc1nc(-c2cccc(-c3cccc4c3CC[C@@H]4Oc3nc(OC)c(CN4CCC[C@H](C(=O)O)[C@@H]4C)cc3Cl)c2Cl)ccc1CNC[C@@H]1CCC(=O)N1 [Example 764] |
| 0.064 nM | 11 nM | 13.1 nM | COc1nc(-c2cccc(-c3cccc4c3CC[C@@H]4Oc3nc(OC)c(CN4C[C@@H](C)[C@H](C(=O)O)C4)cc3Cl)c2Cl)ccc1CNC[C@@H]1CCC(=O)N1 [Example 765] |
| 0.064 nM | 21 nM | 19.4 nM | COc1nc(-c2cccc(-c3cccc4c3CC[C@@H]4Oc3nc(OC)c(CN4CC5(C(=O)O)CCC4CC5)cc3Cl)c2Cl)ccc1CNC[C@@H]1CCC(=O)N1 [Example 766] |
| 0.064 nM | 57 nM | 75.7 nM | COc1nc(O[C@H]2CCc3c(-c4cccc(-c5cnc(CN6CC7(C6)CN(C(C)=O)C7)c(OC)n5)c4Cl)cccc32)c(Cl)cc1CN1CC[C@@H](C(=O)O)C1 [Example 767] |
| 0.064 nM | 33 nM | 47.4 nM | COc1nc(O[C@H]2CCc3c(-c4cccc(-c5cnc(CNC[C@@H]6CCC(=O)N6)c(OC)n5)c4Cl)cccc32)c(Cl)cc1CN1CC[C@@H](C(=O)O)C1 [Example 768] |
| 0.064 nM | 25 nM | 28.1 nM | COc1nc(-c2cccc(-c3cccc4c3CC[C@@H]4Oc3nc(OC)c(CN4CC[C@@H](C(=O)O)C4)cc3Cl)c2Cl)ccc1CNC[C@@H]1CCC(=O)N1 [Example 769] |
